# Laboratory results from publication PMC11003488 (Journal of Enzyme Inhibition and Medicinal Chemistry, 2023).
# Where two headings read alike, the source gives them in different places.
# Experiments:
# HL-60(TB) = test: cells; assay type: cell-based; conditions: Homo sapiens
# K-562 = test: NCI-60 SRB growth inhibition, one-dose and five-dose; assay type: cell-based; conditions: Homo sapiens
# MOLT-4 = test: as above; assay type: cell-based; conditions: Homo sapiens
# RPMI-8226 = test: as above; assay type: cell-based; conditions: Homo sapiens
# SR = test: as above; assay type: cell-based; conditions: Homo sapiens
# A549/ATCC = test: as above; assay type: cell-based; conditions: Homo sapiens
# EKVX = test: as above; assay type: cell-based; conditions: Homo sapiens
# HOP-92 = test: as above; assay type: cell-based; conditions: Homo sapiens
# NCI-H23 = test: as above; assay type: cell-based; conditions: Homo sapiens
# NCI-H322M = test: as above; assay type: cell-based; conditions: Homo sapiens
# NCI-H460 = test: as above; assay type: cell-based; conditions: Homo sapiens
# NCI-H522 = test: as above; assay type: cell-based; conditions: Homo sapiens
# HCC-2998 = test: as above; assay type: cell-based; conditions: Homo sapiens
# HCT-116 = test: as above; assay type: cell-based; conditions: Homo sapiens
# HCT-15 = test: as above; assay type: cell-based; conditions: Homo sapiens
# SW-620 = test: as above; assay type: cell-based; conditions: Homo sapiens
# SF-268 = test: as above; assay type: cell-based; conditions: Homo sapiens
# SF-539 = test: as above; assay type: cell-based; conditions: Homo sapiens
# SNB-19 = test: as above; assay type: cell-based; conditions: Homo sapiens
# SNB-75 = test: as above; assay type: cell-based; conditions: Homo sapiens
# U251 = test: as above; assay type: cell-based; conditions: Homo sapiens
# M14 = test: as above; assay type: cell-based; conditions: Homo sapiens
# SK-MEL-2 = test: as above; assay type: cell-based; conditions: Homo sapiens, SK-MEL-2, read-out: percent growth inhibition
# SK-MEL-28 = test: as above; assay type: cell-based; conditions: Homo sapiens
# UACC-62 = test: as above; assay type: cell-based; conditions: Homo sapiens
# IGROV1 = test: as above; assay type: cell-based; conditions: Homo sapiens
# OVCAR-3 = test: as above; assay type: cell-based; conditions: Homo sapiens
# OVCAR-5 = test: as above; assay type: cell-based; conditions: Homo sapiens
# OVCAR-8 = test: as above; assay type: cell-based; conditions: Homo sapiens, OVCAR-8, read-out: percent growth inhibition
# NCI/ADR-RES = test: as above; assay type: cell-based; conditions: Homo sapiens
# 786-0 = test: as above; assay type: cell-based; conditions: Homo sapiens
# A498 = test: as above; assay type: cell-based; conditions: Homo sapiens
# CAKI-1 = test: as above; assay type: cell-based; conditions: Homo sapiens
# RXF 393 = test: as above; assay type: cell-based; conditions: Homo sapiens
# SN12C = test: as above; assay type: cell-based; conditions: Homo sapiens
# TK-10 = test: as above; assay type: cell-based; conditions: Homo sapiens
# PC-3 = test: as above; assay type: cell-based; conditions: Homo sapiens
# MCF7 = test: as above; assay type: cell-based; conditions: Homo sapiens
# HS 578 T = test: as above; assay type: cell-based; conditions: Homo sapiens
# BT-549 = test: as above; assay type: cell-based; conditions: Homo sapiens
# T-47D = test: as above; assay type: cell-based; conditions: Homo sapiens, T47D
# [1] = test system: NCI 60-cell line panel (full panel); test: NCI-60 SRB growth inhibition, full panel mean / MG-MID; assay type: cell-based, human; conditions: for GI50: Homo sapiens, 60 cell
# [2] = read-out: percent growth inhibition
smiles,measurement,setting,value
"O=C(/C=C/c1cccnc1)c1cccc(NCc2ccc(CO)cc2)c1 [Compound 5e, (E)-1–(3-((4-(hydroxymethyl)benzyl)amino)phenyl)-3-(pyridin-3-yl)prop-2-en-1-one]",GI50,HL-60(TB); HL-60,4.23 µM
same,inhibition at 10 µM,"HL-60(TB); HL-60, read-out: percent growth inhibition",118%
same,GI50,K-562; K562,2.75 µM
same,inhibition at 10 µM,"K-562; K562, read-out: percent growth inhibition",99.1%
same,GI50,MOLT-4; MOLT-4,2.69 µM
same,inhibition at 10 µM,"MOLT-4; MOLT-4, read-out: percent growth inhibition",120%
same,GI50,RPMI-8226; RPMI-8226,2.27 µM
same,inhibition at 10 µM,"RPMI-8226; RPMI-8226, read-out: percent growth inhibition",133%
same,GI50,SR,2.62 µM
same,GI50,A549/ATCC; A549,16.9 µM
same,inhibition at 10 µM,"A549/ATCC; A549, read-out: percent growth inhibition",16.4%
same,GI50,EKVX,13.7 µM
same,inhibition at 10 µM,EKVX; [2],56.8%
same,GI50,HOP-92; HOP-92,12.5 µM
same,inhibition at 10 µM,"HOP-92; HOP-92, read-out: percent growth inhibition",23.3%
same,GI50,NCI-H23; NCI-H23,12.9 µM
same,inhibition at 10 µM,"NCI-H23; NCI-H23, read-out: percent growth inhibition",79.3%
same,GI50,NCI-H322M,15 µM
same,inhibition at 10 µM,NCI-H322M; [2],18.6%
same,GI50,NCI-H460; NCI-H460,14 µM
same,inhibition at 10 µM,"NCI-H460; NCI-H460, read-out: percent growth inhibition",64.7%
same,GI50,NCI-H522; NCI-H522,11.4 µM
same,inhibition at 10 µM,"NCI-H522; NCI-H522, read-out: percent growth inhibition",57.6%
same,GI50,HCC-2998; HCC 2998,5.6 µM
same,inhibition at 10 µM,"HCC-2998; HCC 2998, read-out: percent growth inhibition",190%
same,GI50,"HCT-116; HCT-116, HCT-116, five-dose screening",1.88 µM
same,inhibition at 10 µM,"HCT-116; HCT-116, read-out: percent growth inhibition",193%
same,GI50,HCT-15; HCT-15,3.01 µM
same,inhibition at 10 µM,"HCT-15; HCT-15, read-out: percent growth inhibition",132%
same,GI50,SW-620; SW-620,2.06 µM
same,inhibition at 10 µM,"SW-620; SW-620, read-out: percent growth inhibition",140%
same,GI50,SF-268; SF-268,16.9 µM
same,inhibition at 10 µM,"SF-268; SF-268, read-out: percent growth inhibition",64.8%
same,GI50,SF-539; SF-539,14.5 µM
same,inhibition at 10 µM,"SF-539; SF-539, read-out: percent growth inhibition",98.5%
same,GI50,SNB-19; SNB-19,12.4 µM
same,inhibition at 10 µM,"SNB-19; SNB-19, read-out: percent growth inhibition",74.9%
same,GI50,SNB-75; SNB-75,9.69 µM
same,inhibition at 10 µM,"SNB-75; SNB-75, read-out: percent growth inhibition",14.7%
same,GI50,U251; U-251,4.94 µM
same,inhibition at 10 µM,"U251; U-251, read-out: percent growth inhibition",146%
same,GI50,M14; M14,12.4 µM
same,inhibition at 10 µM,"M14; M14, read-out: percent growth inhibition",91.9%
same,inhibition at 10 µM,SK-MEL-2,17.7%
same,GI50,SK-MEL-28; SK-MEL-28,13.6 µM
same,inhibition at 10 µM,"SK-MEL-28; SK-MEL-28, read-out: percent growth inhibition",121%
same,GI50,UACC-62; UACC-62,11.3 µM
same,inhibition at 10 µM,"UACC-62; UACC-62, read-out: percent growth inhibition",59.8%
same,GI50,IGROV1; IGROV-1,3.58 µM
same,inhibition at 10 µM,"IGROV1; IGROV-1, read-out: percent growth inhibition",86.3%
same,GI50,OVCAR-3; OVCAR-3,10.3 µM
same,inhibition at 10 µM,"OVCAR-3; OVCAR-3, read-out: percent growth inhibition",131%
same,GI50,OVCAR-5; OVCAR-5,14.6 µM
same,inhibition at 10 µM,"OVCAR-5; OVCAR-5, read-out: percent growth inhibition",32.6%
same,inhibition at 10 µM,OVCAR-8,97.2%
same,GI50,NCI/ADR-RES,11.3 µM
same,inhibition at 10 µM,NCI/ADR-RES; [2],104%
same,GI50,786-0; 786-0,15.2 µM
same,inhibition at 10 µM,"786-0; 786-0, read-out: percent growth inhibition",108%
same,GI50,A498; A498,14.8 µM
same,inhibition at 10 µM,"A498; A498, read-out: percent growth inhibition",15.3%
same,GI50,CAKI-1; CAKI-1,13.5 µM
same,inhibition at 10 µM,"CAKI-1; CAKI-1, read-out: percent growth inhibition",42.3%
same,GI50,RXF 393; RXF 393,13.7 µM
same,inhibition at 10 µM,"RXF 393; RXF 393, read-out: percent growth inhibition",121%
same,GI50,SN12C,12.3 µM
same,inhibition at 10 µM,SN12C; [2],94.4%
same,GI50,TK-10; TK-10,15 µM
same,inhibition at 10 µM,"TK-10; TK-10, read-out: percent growth inhibition",30.6%
same,GI50,PC-3; PC-3,11.6 µM
same,inhibition at 10 µM,"PC-3; PC-3, read-out: percent growth inhibition",62.6%
same,GI50,MCF7; MCF7,2.15 µM
same,inhibition at 10 µM,"MCF7; MCF7, read-out: percent growth inhibition",163%
same,GI50,HS 578 T,18 µM
same,inhibition at 10 µM,HS 578 T; [2],33.5%
same,GI50,BT-549; BT-549,6.12 µM
same,inhibition at 10 µM,"BT-549; BT-549, read-out: percent growth inhibition",98.1%
same,GI50,T-47D,9.17 µM
same,inhibition at 10 µM,T-47D; [2],59.1%
same,GI50,[1]; read-out: Full panel GI50 mean,9.96 µM
same,GI50,[1]; read-out: Full panel MG-MID GI50,9.96 µM
same,Full panel Mean GI %,"[1]; mean over NCI-60 panel, single dose 10 µM",86.06%
